The record followed here is patent publication US11684616B2, “Azalactam compounds as HPK1 inhibitors” (PFIZER INC., priority 2020, dated 2023).

Like-named read-outs stand apart in the source and are kept apart here.

The test system of assay [1] is Phospho-SLP-76 (Ser376) in Jurkat cells. The assay can be described thus: Phospho-SLP-76 (Ser376) HTRF assay in anti-CD3 stimulated Jurkat cells. In kind it is cell-based. The following applies: 30 min pre-treatment, anti-CD3 stimulation 15 min, read-out: pSLP76 IC50. As for the experimental part: Cell Based Assays Phospho-SLP-76 (Ser376) Homogeneous Time Resolved Fluorescence (HTRF) Assay
Jurkat cells were seeded at 90,000 cells/well in 90 uL of RPMI1640 growth medium containing 10% FBS and incubated at 37° C. with 5% CO2 overnight. The following day, compounds were serially diluted from a 10 mM top dose for an 11-point 3-fold dilution curve in DMSO. Compounds were intermediately diluted 1:100 into growth media prior to diluting 1:10 on cells for final concentration 10 μM to 0.1 nM in 0.1% DMSO. After 30 min pre-treatment with compounds, the cells were stimulated using 200 μg/mL of F(ab)2 complexed anti-CD3 (clone UCTH1) for 15 min at 37° C. with 5% CO2. Stimulation was stopped with ice cold PBS and cells were harvested by centrifugation before lysis in Cisbio lysis buffer (Cisbio, Bedford, Mass.). Lysates were transferred to white, low-volume plates containing anti-phospho-SLP-76-Cryptate plus anti-phospho-SLP-76-d2 HTRF antibodies and incubated overnight at room temperature protected from light according to the manufacturer's protocol (Cisbio, Bedford, Mass.). HTRF was measured on a Perkin Elmer Envision and IC50 values were calculated by concentration-response curve fitting utilizing four-parameter nonlinear regression analyses.

The target in assay [2] is human full-length autophosphorylated recombinant HPK1 (Homo sapiens (Human), UniProt Q92918). The assay can be described thus: HPK1 biochemical enzyme assay (chelation-enhanced fluorescence, CHEF). The following applies: 0.5 nM HPK1, 45 μM ATP, Morrison fit. On the procedure: HPK1 Biochemical Enzyme Assay
HPK1 enzyme inhibition was measured by using the fluorescence-based chelation-enhanced fluorescence (CHEF) method (1), and by using a proprietary fluorescent peptide substrate, in which a cysteine residue is alkylated with a sulfonamido-oxine-based derivative to afford an amino acid termed C-Sox (CSx). […] Initial reaction velocities were determined by following the peptide fluorescence (λex=360 nm, λem=500 nm) at 30° C. for 15 min in a Tecan M1000 plate reader (Tecan Group Ltd., Mannedorf, Zurich, Switzerland).
Production of Autophosphorylated Full-Length Recombinant HPK1
The DNA sequence encoding full-length human HPK1 (Genbank NM_001042600.2) was synthesized at GenScript and contained a limited number of silent base changes to eliminate certain restriction endonuclease enzyme recognition sites, and fused to a DNA sequence encoding a Tobacco Etch Virus (TEV)-cleavable N-terminal polyhistidine purification tag. A recombinant baculovirus was prepared by using the Bac-to-Bac method (InVitrogen) and was used to infect 9 L of Sf21 insect cells. All purification steps were carried out at 4° C. Cells containing recombinant HPK1 were lysed in 50 mM HEPES-NaOH, pH 7.5, 250 mM NaCl, 1 mM tris(2-carboxyethyl)phosphine (TCEP), 10 μM leupeptin (Sigma), 10 μM E-64 (Sigma), and one ‘EDTA-free’ protease inhibitor tablet (Roche) per 75 mL buffer, centrifuged at 15,000×g for 1 h and the supernatant passed over 5 mL of ProBond IMAC resin (InVitrogen). After washing, HPK1 was eluted with 12.5 mL of 50 mM HEPES-NaOH, pH 7.5, 400 mM NaCl, 250 mM imidazole-HCl pH 7.5, 1 mM TCEP, 2 μM leupeptin, and 2 μM E-64. The eluted HPK1 was dialyzed overnight against 0.8 L of 50 mM HEPES-NaOH, pH 7.5, 400 mM NaCl, 20 mM imidazole-HCl pH 7.5, 1 mM TCEP, 2 μM leupeptin, 2 μM E-64, 2 mM ATP-NaOH pH 7.3, 5 mM MgCl2 and 1 mg TEV (this step simultaneously allows for reduction of the imidazole concentration in preparation for the subsequent reverse IMAC chromatography step, removal of the polyhistidine purification tag by TEV protease, and autophosphorylation of HPK1 in the presence of MgATP). The de-tagged and autophosphorylated HPK1 was adjusted to 40 mM imidazole-HCl, pH 7.5, and passed through a 10 mL column of ProBond resin similarly equilibrated. […] The peak fractions containing HPK1 were pooled and concentrated to approximately 2.5 mL by using a centrifugal concentrator (Millipore). The concentrated HPK1 was adjusted to 20% (v/v) glycerol by the addition of 50% (v/v) glycerol, resulting in a final formulation of 25 mM HEPES-NaOH pH 7.5, 250 mM NaCl, 0.25 mM TCEP and 20% (v/v) glycerol. […] Aliquots of the enzyme were flash frozen in liquid nitrogen and stored at −80° C. The final product contains a glycine-serine extension at the N-terminus of the full-length protein, as a result of the cloning strategy.

human full-length autophosphorylated recombinant HPK1, sequence (Q92918 other isoform, or with tags, fused parts or gaps): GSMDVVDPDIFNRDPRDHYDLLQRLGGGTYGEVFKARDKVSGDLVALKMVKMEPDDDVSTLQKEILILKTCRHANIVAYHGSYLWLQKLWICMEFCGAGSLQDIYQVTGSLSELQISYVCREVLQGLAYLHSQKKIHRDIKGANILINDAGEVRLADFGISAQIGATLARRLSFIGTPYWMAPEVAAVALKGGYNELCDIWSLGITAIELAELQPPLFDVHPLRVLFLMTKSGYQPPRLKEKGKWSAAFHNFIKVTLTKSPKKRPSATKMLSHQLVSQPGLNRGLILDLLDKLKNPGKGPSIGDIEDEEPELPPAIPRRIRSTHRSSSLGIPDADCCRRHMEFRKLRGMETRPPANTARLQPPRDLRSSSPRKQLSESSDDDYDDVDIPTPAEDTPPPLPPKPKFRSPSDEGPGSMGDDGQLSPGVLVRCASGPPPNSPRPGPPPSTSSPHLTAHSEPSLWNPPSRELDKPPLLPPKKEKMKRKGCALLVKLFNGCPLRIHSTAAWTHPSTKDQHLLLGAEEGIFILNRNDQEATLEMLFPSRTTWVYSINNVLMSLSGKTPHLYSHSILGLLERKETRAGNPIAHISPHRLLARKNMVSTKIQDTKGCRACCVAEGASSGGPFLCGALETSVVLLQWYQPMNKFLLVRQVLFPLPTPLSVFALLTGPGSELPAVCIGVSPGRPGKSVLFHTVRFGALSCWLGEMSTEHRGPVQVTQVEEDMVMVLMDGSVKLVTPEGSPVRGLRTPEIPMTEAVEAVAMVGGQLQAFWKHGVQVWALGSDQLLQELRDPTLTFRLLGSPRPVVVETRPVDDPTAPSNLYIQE

As to “4-[(1ξ)-1- aminoethyl]-2- {6-[(5R)-5- (fluoromethyl)- 6,7-dihydro- 5H-pyrrolo[2,1- c][1,2,4]triazol- 3-yl]pyridin-2- yl}-6-[(2R)-2- methylpyrroli- din-1-yl]-2,3- dihydro-1H- pyrrolo[3,4- c]pyridin-1-one [Example 18]”, in assay [1], the concentration for half-maximal inhibition (IC50) is 42 nM. Also, the inhibition constant (Ki) in assay [2] was under 0.05 nM.

As for `CC[C@@H]1CCc2nnc(-c3cccc(N4Cc5c(cc(N6CCC[C@H]6C)nc5[C@H](N)CC)C4=O)n3)n21` (single isomer, unassigned) [Example 13], the concentration for half-maximal inhibition (IC50) in assay [1] (Homo sapiens, Jurkat) was determined as 36 nM. The Ki in assay [2] was under 0.07 nM.

In the case of `CC[C@H]1CCc2nnc(-c3cccc(N4Cc5c(cc(N6CCC[C@H]6C)nc5[C@H](N)CC)C4=O)n3)n21` (single isomer, unassigned) [Example 14], the 50% inhibitory concentration (IC50) in assay [1] (Homo sapiens, Jurkat) stood at 340 nM. Moreover, the Ki in assay [2] came out at 0.93 nM.

`CC[C@@H]1CCc2nnc(-c3cccc(N4Cc5c(cc(N6CCC[C@H]6C)nc5[C@@H](N)CC)C4=O)n3)n21` (single isomer, unassigned) [Example 16]: in assay [1] (Homo sapiens, Jurkat), the half-inhibitory concentration (IC50) was 487 nM. Also, in assay [2], the inhibition constant (Ki) turned out to be 0.093 nM.

As to `C[C@H]1CCc2nnc(-c3cccc(N4Cc5c(cc(N(C)C)nc5C(C)(C)N)C4=O)n3)n21` (single isomer, unassigned) [Example 22, 4-(2-aminopropan-2-yl)-6-(dimethyl-amino)-2-{6-[(5ξ)-5-methyl-6,7-dihydro-5H-pyrrolo[2,1-c][1,2,4]triazol-3-yl]pyridin-2-yl}-2,3-dihydro-1H-pyrrolo[3,4-c]pyridin-1-one], the IC50 in assay [1] (Homo sapiens, Jurkat) was found to be 133 nM. In assay [2], the inhibition constant Ki was 0.08 nM.

As to `C[C@@H]1CCc2nnc(-c3cccc(N4Cc5c(cc(N(C)C)nc5C(C)(C)N)C4=O)n3)n21` (single isomer, unassigned) [Example 23, 4-(2-aminopropan-2-yl)-6-(dimethyl-amino)-2-{6-[(5ξ)-5-methyl-6,7-dihydro-5H-pyrrolo[2,1-c][1,2,4]triazol-3-yl]pyridin-2-yl}-2,3-dihydro-1H-pyrrolo[3,4-c]pyridin-1-one], in assay [1] (Homo sapiens, Jurkat), the IC50 stood at 329 nM. Besides, the Ki in assay [2] is 5 nM.

With `C[C@@H]1CCCN1c1cc2c(c([C@@H](C)N)n1)CN(c1cccc(-c3nnc4n3[C@H](C)CC4)n1)C2=O` (single isomer, unassigned) [Example 25], in assay [1] (Homo sapiens, Jurkat), the half-maximal inhibitory concentration (IC50) was found to be 53 nM. Besides, in assay [2], the Ki is under 0.05 nM.

With `C[C@H](N)c1nc(N2CCC[C@H]2C)cc2c1CN(c1cccc(-c3nnc4n3[C@@H](C)CC4)n1)C2=O` (single isomer, unassigned) [Example 26], the IC50 in assay [1] (Homo sapiens, Jurkat) turned out to be 133 nM. The Ki in assay [2] is 0.72 nM.

In the case of `C[C@H](N)c1nc(N2CCC[C@H]2C)cc2c1CN(c1cccc(-c3nnc4n3[C@H](C)CC4)n1)C2=O` (single isomer, unassigned) [Example 27], the IC50 in assay [1] (Homo sapiens, Jurkat) turned out to be 56 nM. For the same molecule, the Ki in assay [2] was under 0.05 nM.

`COC[C@@H](N)c1nc(C2(C)CC2)cc2c1CN(c1cccc(-c3nnc4n3[C@@H](CF)CC4)n1)C2=O` (single isomer, unassigned) [Example 35]: the IC50 in assay [1] (Homo sapiens, Jurkat) came to 181 nM. The inhibition constant Ki in assay [2] was 0.3 nM.

Regarding `CC[C@@H](N)c1nc(C2(C)CC2)cc2c1CN(c1cccc(-c3nnc4n3[C@@H](CO)CC4)n1)C2=O` (single isomer, unassigned) [Example 36], in assay [1] (Homo sapiens, Jurkat), the IC50 turned out to be 110 nM. Moreover, the Ki in assay [2] was 0.074 nM.

Turning to `CC[C@@H](N)c1nc(C2(C)CC2)cc2c1CN(c1cccc(-c3nnc4n3[C@@H](C)CC4)n1)C2=O` (single isomer, unassigned) [Example 37], in assay [1] (Homo sapiens, Jurkat), the IC50 was found to be 49 nM. In addition, the Ki in assay [2] was under 0.05 nM.

Consider `COC[C@@H](N)c1nc(C2(C)CC2)cc2c1CN(c1cccc(-c3nnc4n3[C@@H](CO)CC4)n1)C2=O` (single isomer, unassigned) [Example 38], for which the IC50 in assay [1] (Homo sapiens, Jurkat) worked out at 197 nM. Also, the Ki in assay [2] is 0.18 nM.

In the case of `CCCn1cnnc1-c1cccc(N2Cc3c(cc(N4CCC[C@H]4C)nc3[C@@H](C)N)C2=O)n1` (single isomer, unassigned) [Example 101], the 50% inhibitory concentration (IC50) in assay [1] (Homo sapiens, Jurkat) is 118 nM. Besides, the inhibition constant Ki in assay [2] came to 0.17 nM.

Regarding `CC[C@@H](N)c1nc(N(C)C(C)C)cc2c1CN(c1cccc(-c3nnc4n3[C@@H](C)CC4)n1)C2=O` [Example 5], in assay [1] (Homo sapiens, Jurkat), the IC50 is 31 nM.

Turning to `COC[C@@H](N)c1nc(C2(C)CC2)cc2c1CN(c1cccc(-c3nnc4n3[C@@H](C)CC4)n1)C2=O` [Example 6a, 4-[(1)-1-amino-2-methoxyethyl]-6-(1-methylcyclopropyl)-2-{6-[(5S)-5-methyl-6,7-dihydro-5H-pyrrolo[2,1-c][1,2,4]triazol-3-yl]pyridin-2-yl}-2,3-dihydro-1H-pyrrolo[3,4-c]pyridin-1-one], in assay [1], the IC50 was 69 nM.

For `COC[C@@H](N)c1nc(C2(C)CC2)cc2c1CN(c1cccc(-c3nnc4n3[C@@H](C)CC4)n1)C2=O` [Example 6b, 4-[(1)-1-amino-2-methoxyethyl]-6-(1-methylcyclopropyl)-2-{6-[(5S)-5-methyl-6,7-dihydro-5H-pyrrolo[2,1-c][1,2,4]triazol-3-yl]pyridin-2-yl}-2,3-dihydro-1H-pyrrolo[3,4-c]pyridin-1-one], the concentration for half-maximal inhibition (IC50) in assay [1] was 641 nM.

With `CC(C)N(C)c1cc2c(c([C@@H](C)N)n1)CN(c1cccc(-c3nnc4n3[C@@H](C)CC4)n1)C2=O` [Example 21, 4-[(1R)-1-aminoethyl]-2-{6-[(5S)-5-methyl-6,7-dihydro-5H-pyrrolo[2,1-c][1,2,4]triazol-3-yl]pyridin-2-yl}-6-[methyl(propan-2-yl)amino]-2,3-dihydro-1H-pyrrolo[3,4-c]pyridin-1-one], the 50% inhibitory concentration (IC50) in assay [1] (Homo sapiens, Jurkat) was 46 nM.

In the case of `CCCn1cnnc1-c1cccc(N2Cc3c(cc(N(C)C)nc3[C@H](C)N)C2=O)n1` [Example 137, 4-[(1S)-1-aminoethyl]-6-(dimethyl-amino)-2-[6-(4-propyl-4H-1,2,4-triazol-3-yl)pyridin-2-yl]-2,3-dihydro-1H-pyrrolo[3,4-c]pyridin-1-one], in assay [1] (Homo sapiens, Jurkat), the IC50 was found to be 189 nM.

With `CCCn1cnnc1-c1cccc(N2Cc3c(cc(N(C)C)nc3[C@@H](C)N)C2=O)n1` [Example 138, 4-[(1R)-1-aminoethyl]-6-(dimethyl-amino)-2-[6-(4-propyl-4H-1,2,4-triazol-3-yl)pyridin-2-yl]-2,3-dihydro-1H-pyrrolo[3,4-c]pyridin-1-one], the 50% inhibitory concentration (IC50) in assay [1] (Homo sapiens, Jurkat) turned out to be 332 nM.

Consider `CC[C@@H]1CCc2nnc(-c3cccc(N4Cc5c(cc(N(C)C)nc5CNC)C4=O)n3)n21` [Example 207, 6-(dimethyl-amino)-2-{6-[(5R)-5-ethyl-6,7-dihydro-5H-pyrrolo[2,1-c] [1,2,4]triazol-3-yl]pyridin-2-yl}-4-[(methyl-amino)methyl]-2,3-dihydro-1H-pyrrolo[3,4-c] pyridin-1-one], for which the inhibition constant Ki in assay [2] stood at 2.68 nM.

In the case of `CNCc1nc(N(C)C)cc2c1CN(c1cccc(-c3nnc4n3[C@H](C)CC4)n1)C2=O` [Example 209, 6-(dimethyl-amino)-4-[(methylamino)methyl]-2-{6-[(5R)-5-methyl-6,7-dihydro-5H-pyrrolo[2,1-c] [1,2,4]triazol-3-yl]pyridin-2-yl}-2,3-dihydro-1H-pyrrolo[3,4-c] pyridin-1-one], the inhibition constant Ki in assay [2] came out at 2.11 nM.
